Patent US12011450B2, “Polyethylene glycol-conjugated glucocorticoid prodrugs and compositions and methods thereof” (Board of Regents of the University of Nebraska, priority 2015, dated 2024)
“Also recorded” adds a separate entry of the source.

What was measured:
NZB/W F1 mice kidneys = experiment: Histological evaluation of PAS-stained kidney sections; format: in vivo; conditions: 2-month treatment end point
Excerpt: The tissues were formalin-fixed, sectioned (3 μm) and periodic-acid schiff (PAS) stained for visual examination and 4 point grading by a pathologist, who is blind to the group design.
The periodic-acid schiff (PAS) stained kidney sections were also graded by a histopathologic score system with a 4-point scale.

MCP-1, IFN-β, IFN-γ = experiment: Serum inflammatory cytokine/chemokine analysis; format: in vivo, mice; conditions: end of 2-month treatment
Description: Their urine protein level was monitored weekly using Albustix Reagent Strips (Siemens Healthineers). Only mice with established nephritis, as evidenced by sustained albuminuria (≥100 mg/dL) over 2 weeks, were enrolled in the study. […] The Dex treatment (dexamethasone 21-phosphate disodium, 1.32 mg/kg, containing 1.00 mg/kg of dexamethasone, n=11) was given as daily i.v. injection. All treatments continued for 8 weeks. The body weight and proteinuria level of the animals was monitored on a weekly basis. Peripheral blood was collected from saphenous vein every 4 weeks for serum analyses. […] The surviving mice were monitored for an additional two weeks after the last treatment. The mice were then euthanized by CO2 asphyxiation, with all major tissues and organs isolated, weighted and processed at necropsy.
For inflammatory cytokine/chemokine analysis, the data obtained were log 2 transformed to make them more normally distributed. The mixed effects model with AR(1) correlation among repeated measures over time of the same animal were used to fit the log transformed cytokine expression values for each cytokine separately. […]

anti-dsDNA IgG = experiment: Serum anti-dsDNA IgG level; format: in vivo, mice; conditions: 4 and 8 weeks post-treatment initiation
NZB/W F1 mice [1] = conditions: mouse, in vivo
Excerpt: Therefore, we monitored peripheral white blood cell (WBC) counts and during the experimental time course.

NZB/W F1 mice [2] = conditions: mouse, in vivo; remark: listed apart in the source
NZB/W F1 mice [3] = conditions: mouse, in vivo; remark: listed apart in the source
Excerpt: Therefore, at necropsy, we determined the mass of the adrenal glands in each mouse.

With `C[C@@H]1C[C@H]2[C@@H]3CCC4=CC(=O)C=C[C@]4(C)[C@@]3(F)[C@@H](O)C[C@]2(C)[C@@]1(O)C(=O)COP(=O)([O-])[O-].[Na+].[Na+]` [Dex, dexamethasone 21-phosphate disodium] the “glomeruli with histological abnormities” value (NZB/W F1 mice kidneys) was 40%, the “mice graded as severe glomerulonephritis (scored 3 and 4 points)” value (NZB/W F1 mice kidneys; 4-point scale) was “more than 40%” and the “change in serum MCP-1, IFN-β and IFN-γ values” (MCP-1, IFN-β, IFN-γ) was “did not induce the improvement”. The “serum anti-dsDNA IgG level” value (anti-dsDNA IgG) was “significantly reduce; also recorded: significantly reduced the antibody level”, the “peripheral white blood cell (WBC) counts” value (NZB/W F1 mice [1]) was “lower than the saline group, even though there was no significant difference” and the “total serum IgG level” value (NZB/W F1 mice [2]) was “significant drop of serum IgG value”. The adrenal gland mass (NZB/W F1 mice [3]) was “significantly lower than the PEG-DiDex group”.
